The results in this text go back to PMC8119466, “A screen of FDA-approved drugs identifies inhibitors of protein tyrosine phosphatase 4A3 (PTP4A3 or PRL-3)” (Scientific Reports, 2021).

Where a name gives a salt, the structure may show the parent alone. Read-outs that look alike come from different tables or passages of the source.

Holding throughout (format): biochemical
The target of one test is T1, recombinant PRL-2 (Homo sapiens, UniProt Q12974).
T1 construct: 6xHis (N, cleaved yes); made in house; host or cells: E. coli One Shot BL21 Star
T1 sequence (Q12974 1-167): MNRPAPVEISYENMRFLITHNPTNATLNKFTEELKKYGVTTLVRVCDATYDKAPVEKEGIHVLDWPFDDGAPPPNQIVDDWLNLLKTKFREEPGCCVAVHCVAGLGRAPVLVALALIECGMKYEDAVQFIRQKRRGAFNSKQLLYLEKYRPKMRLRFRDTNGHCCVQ
Description: In vitro phosphatase assay (DiFMUP hydrolysis), PRL-2.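 Note: PRL-2 activity read as DiFMUP hydrolysis after 20 min at room temperature with drug, enzyme first pre-reduced at 4 °C for 20 min.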

The target of the next test is T2, recombinant PRL-3 (Homo sapiens, UniProt O75365).
T2 construct: 6xHis (N, cleaved yes); made in house; host or cells: E. coli One Shot BL21 Star
Description: In vitro phosphatase assay (DiFMUP hydrolysis), PRL-3. Note: test concentration or dose not given here.

Another test has as its target T3, recombinant PRL-1 (Homo sapiens, UniProt Q93096).
T3 construct: 6xHis (N, cleaved yes); made in house; host or cells: E. coli One Shot BL21 Star
T3 sequence (Q93096 1-173): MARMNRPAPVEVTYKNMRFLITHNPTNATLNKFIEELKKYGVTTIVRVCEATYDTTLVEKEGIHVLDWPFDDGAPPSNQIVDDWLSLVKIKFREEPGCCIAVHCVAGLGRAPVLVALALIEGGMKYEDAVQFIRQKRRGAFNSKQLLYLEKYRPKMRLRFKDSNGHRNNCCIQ
Description: In vitro phosphatase assay (DiFMUP hydrolysis), PRL-1. Note: test concentration or dose not given here.

[1] abbreviates: FDA-approved drug screen, activity compared to DMSO.
Where [2] appears, read: FDA-approved drug screen, compared to DMSO.

T2 sequence (O75365 whole entry): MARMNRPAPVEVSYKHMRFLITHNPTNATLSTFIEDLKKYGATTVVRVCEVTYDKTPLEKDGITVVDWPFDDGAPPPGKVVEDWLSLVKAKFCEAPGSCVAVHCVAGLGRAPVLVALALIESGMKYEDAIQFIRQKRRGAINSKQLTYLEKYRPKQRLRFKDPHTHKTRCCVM

On to `Cl.c1ccc(C2CN3CCSC3=N2)cc1` (stereo not drawn) [Tetramisole HCl], for which, at recombinant PRL-2, the “% Phosphatase Activity (compared to DMSO) PRL-2” value came out at 83%. Moreover, the “% Phosphatase Activity (compared to DMSO) PRL-3” value on recombinant PRL-3 is listed as 102%. Also, the “% Phosphatase Activity (compared to DMSO) PRL-1” value at recombinant PRL-1 is 97%.
On to `CN(N=O)C(=O)N[C@H]1C(O)O[C@H](CO)[C@@H](O)[C@@H]1O` (mixture of isomers) [Streptozotocin (STZ)], for which, on recombinant PRL-2 (setting [1]), the “% Phosphatase Activity (compared to DMSO) PRL-2” value is given as 88%. Besides, on recombinant PRL-3 (setting [1]), the “% Phosphatase Activity (compared to DMSO) PRL-3” value came out at 78%. Besides, the “% Phosphatase Activity (compared to DMSO) PRL-1” value on recombinant PRL-1 (setting [1]) is 96%.
As to `CC1(C)O[C@@H]2C[C@H]3[C@@H]4CCC5=CC(=O)C=C[C@]5(C)[C@H]4[C@@H](O)C[C@]3(C)[C@]2(C(=O)CO)O1` [Desonide], at recombinant PRL-2 (setting [2]), the “% Phosphatase Activity (compared to DMSO) PRL-2” value is 97%. Besides, the “% Phosphatase Activity (compared to DMSO) PRL-3” value on recombinant PRL-3 (setting [2]) is 84%. Also, the “% Phosphatase Activity (compared to DMSO) PRL-1” value on recombinant PRL-1 (setting [2]) turned out to be 98%.
As for `CN1CCC(OC(c2ccccc2)c2ccccc2)CC1` [Diphenylpyraline HCl], the “% Phosphatase Activity (compared to DMSO) PRL-2” value at recombinant PRL-2 (setting [2]) came out at 100%. On recombinant PRL-3 (setting [2]), the “% Phosphatase Activity (compared to DMSO) PRL-3” value was determined as 98%. In addition, at recombinant PRL-1 (setting [2]), the “% Phosphatase Activity (compared to DMSO) PRL-1” value is recorded as 97%.
For `CC(C)N(CCC(C(N)=O)(c1ccccc1)c1ccccn1)C(C)C` (stereo not drawn) [Disopyramide Phosphate], in that order: 107%, 93% and 94%.
As for `CS(=O)(=O)CCNCc1ccc(-c2ccc3ncnc(Nc4ccc(OCc5cccc(F)c5)c(Cl)c4)c3c2)o1.Cc1ccc(S(=O)(=O)O)cc1.Cc1ccc(S(=O)(=O)O)cc1` [Lapatinib (GW-572016) Ditosylate], at recombinant PRL-2, the “% Phosphatase Activity (compared to DMSO) PRL-2” value is reported as 255%. Besides, on recombinant PRL-3, the “% Phosphatase Activity (compared to DMSO) PRL-3” value worked out at 142%. For the same compound, the “% Phosphatase Activity (compared to DMSO) PRL-1” value on recombinant PRL-1 is recorded as 212%.
As for `Cl.Cl.OCCN1CCN(CCCN2c3ccccc3Sc3ccc(C(F)(F)F)cc32)CC1` [Fluphenazine (dihydrochloride)], the “% Phosphatase Activity (compared to DMSO) PRL-2” value at recombinant PRL-2 (setting [2]) is reported as 101%. The “% Phosphatase Activity (compared to DMSO) PRL-3” value at recombinant PRL-3 (setting [2]) is 88%. Further, the “% Phosphatase Activity (compared to DMSO) PRL-1” value on recombinant PRL-1 (setting [2]) is 94%.
On to `C[C@@H]1CCN(C(=O)CC#N)C[C@@H]1N(C)c1ncnc2[nH]ccc12` [Tofacitinib (CP-690550,Tasocitinib)], for which, at recombinant PRL-2 (setting [1]), the “% Phosphatase Activity (compared to DMSO) PRL-2” value is given as 114%. Also, at recombinant PRL-3 (setting [1]), the “% Phosphatase Activity (compared to DMSO) PRL-3” value came to 96%. In addition, the “% Phosphatase Activity (compared to DMSO) PRL-1” value on recombinant PRL-1 (setting [1]) was determined as 117%.
Consider `CC(=O)[C@H]1CC[C@H]2[C@@H]3CC=C4C[C@@H](O)CC[C@]4(C)[C@H]3CC[C@]12C` [Pregnenolone], for which the “% Phosphatase Activity (compared to DMSO) PRL-2” value on recombinant PRL-2 (setting [2]) was 101%. In addition, the “% Phosphatase Activity (compared to DMSO) PRL-3” value on recombinant PRL-3 (setting [2]) is recorded as 88%. At recombinant PRL-1 (setting [2]), the “% Phosphatase Activity (compared to DMSO) PRL-1” value was 89%.
For the compound `COC(=O)C1=CCCN(C)C1` [Arecoline], the “% Phosphatase Activity (compared to DMSO) PRL-2” value at recombinant PRL-2 (setting [2]) is on record as 131%. Moreover, the “% Phosphatase Activity (compared to DMSO) PRL-3” value on recombinant PRL-3 (setting [2]) is reported as 84%. In addition, at recombinant PRL-1 (setting [2]), the “% Phosphatase Activity (compared to DMSO) PRL-1” value is 98%.
The like results for `CN(C)C(=N)N=C(N)N` [Metformin HCl] were, in that order, 78%, 87% and 102%.
The like results for `CCc1c2c(nc3ccc(OC(=O)N4CCC(N5CCCCC5)CC4)cc13)-c1cc3c(c(=O)n1C2)COC(=O)[C@]3(O)CC` [Irinotecan] were, in that order, 5728%, 3887% and 4706%.
For `CS(=O)(=O)c1ccc([C@@H](O)[C@@H](CF)NC(=O)C(Cl)Cl)cc1` [Florfenicol], in that order: 111%, 75% and 100%.
`CC(=O)Nc1nnc(S(N)(=O)=O)s1` [Acetazolamide]: the “% Phosphatase Activity (compared to DMSO) PRL-2” value at recombinant PRL-2 (setting [2]) worked out at 97%. Besides, at recombinant PRL-3 (setting [2]), the “% Phosphatase Activity (compared to DMSO) PRL-3” value was determined as 88%. The “% Phosphatase Activity (compared to DMSO) PRL-1” value on recombinant PRL-1 (setting [2]) is recorded as 91%.
Take `OC(CCN1CCCC1)(c1ccccc1)C1CCCCC1` (stereo not drawn) [Procyclidine HCl]: the “% Phosphatase Activity (compared to DMSO) PRL-2” value on recombinant PRL-2 (setting [2]) is given as 118%. Moreover, at recombinant PRL-3 (setting [2]), the “% Phosphatase Activity (compared to DMSO) PRL-3” value was 95%. For the same compound, on recombinant PRL-1 (setting [2]), the “% Phosphatase Activity (compared to DMSO) PRL-1” value is on record as 112%.
As for `CC(=O)Oc1ccccc1C(=O)O` [Aspirin], on recombinant PRL-2 (setting [2]), the “% Phosphatase Activity (compared to DMSO) PRL-2” value was determined as 110%. For the same compound, on recombinant PRL-3 (setting [2]), the “% Phosphatase Activity (compared to DMSO) PRL-3” value was 102%. Also, the “% Phosphatase Activity (compared to DMSO) PRL-1” value on recombinant PRL-1 (setting [2]) amounted to 126%.
